Experimental data reported in patent US20250320203A1, “4-(3H-PYRAZOLO[4,3-F]QUINOLIN-7-YL)-N-(2-(DIMETHYLAMINO)ETHYL)BENZAMIDE- OR HYDROXAMIC ACID COMPOUNDS, COMPOSITIONS, AND METHODS OF USE” (Purdue Research Foundation, priority 2022, published 2025).

Key:
Molm-14 cells (FLT3-ITD) = experiment: AML cell line growth inhibition (CellTiter-Blue), 50 nM; type: cell-based; details: Homo sapiens, 50 nM inhibitor conc., means of triplicates, read-out: Percent Inhibition (%) Molm-14 growth
Experimental: (§1) With the amide kinase inhibitor library established, kinase inhibition and AML cell line (Molm-14, which harbors FLT3-ITD) growth inhibition were analyzed (Table 1). More specifically, Haspin and FLT3 inhibition were evaluated in-house via ADP Glo Kinase Assay (Promega, Madison, WI). […] Values reported are means of triplicates.
More specifically, cells were cultured to confluence in RPMI medium supplemented with 10% fetal bovine serum and 1× Penicillin-Streptomycin (Gibco™). Cells were plated at 5,000 cells/well in 96 well plates. After 24-hour incubation at 37° C. in a 5% CO2 incubator, compounds diluted in the same media were added to the indicated final concentration and allowed to incubate at 37° C. in a 5% CO2 incubator for 72 hours. Viability was determined using CellTiter-Blue® Cell Viability Assay (Promega, Madison, WI) with absorbance readings at 570 nm performed on a Cytation™ 5 Cell Imaging Multi-Mode Reader (BioTek) 3 hours after addition. Appropriate vehicle and cell-free controls were included. GI50 readings were confirmed by two scientists on two separate days.

FLT3 = target: T1, FLT3 (Homo sapiens, UniProt P36888); experiment: ADP Glo Kinase Assay, FLT3, 50 nM inhibitor; type: biochemical; details: 50 nM inhibitor conc.; means of triplicates; read-out: Percent Inhibition (%) FLT3
T1 sequence (P36888 27-993): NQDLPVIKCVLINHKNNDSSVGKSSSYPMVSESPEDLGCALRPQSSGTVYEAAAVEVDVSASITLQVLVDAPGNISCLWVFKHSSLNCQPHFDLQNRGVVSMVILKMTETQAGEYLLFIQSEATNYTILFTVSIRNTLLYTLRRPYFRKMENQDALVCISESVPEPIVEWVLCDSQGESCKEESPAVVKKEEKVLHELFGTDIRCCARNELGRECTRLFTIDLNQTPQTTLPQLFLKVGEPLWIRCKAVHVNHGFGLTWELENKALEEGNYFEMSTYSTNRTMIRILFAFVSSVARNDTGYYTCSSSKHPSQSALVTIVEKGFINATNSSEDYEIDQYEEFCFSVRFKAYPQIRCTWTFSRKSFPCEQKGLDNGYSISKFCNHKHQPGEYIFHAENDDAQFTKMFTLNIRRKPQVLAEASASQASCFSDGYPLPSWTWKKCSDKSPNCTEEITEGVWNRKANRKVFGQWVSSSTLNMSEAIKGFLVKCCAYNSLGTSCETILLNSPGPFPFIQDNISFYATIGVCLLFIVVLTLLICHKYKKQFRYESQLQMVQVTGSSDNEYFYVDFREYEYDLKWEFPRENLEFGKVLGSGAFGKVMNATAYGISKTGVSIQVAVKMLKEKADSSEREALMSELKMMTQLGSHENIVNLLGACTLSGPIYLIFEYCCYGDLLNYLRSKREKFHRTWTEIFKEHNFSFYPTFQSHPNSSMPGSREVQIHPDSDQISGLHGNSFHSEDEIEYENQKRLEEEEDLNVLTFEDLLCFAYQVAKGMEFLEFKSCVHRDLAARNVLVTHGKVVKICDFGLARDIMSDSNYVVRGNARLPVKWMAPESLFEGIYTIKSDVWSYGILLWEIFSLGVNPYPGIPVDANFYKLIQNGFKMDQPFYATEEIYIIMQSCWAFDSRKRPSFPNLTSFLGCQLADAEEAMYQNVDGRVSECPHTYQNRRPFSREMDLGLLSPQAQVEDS
Experimental: as §1
(§2) Briefly, the ADP-Glo Kinase Assay Kit was used to determine inhibition of haspin. Kinase Buffer (SignalChem Cat #K01-09; 25 mM MOPS, pH 7.2, 12.5 mM β-glycerol-phosphate, 25 mM MgCl2, 2 mM EDTA) was supplemented with dithiothreitol (DTT) (0.2 mM) and bovine serum albumin (BSA) (40 μg/mL) immediately prior to use. Reaction volumes of 5 μL containing 9 ng/μL kinase, 10 μM ATP, 50 nM inhibitor, and the appropriate peptide substrate (20 μM) were incubated for 3 hours, and then quenched with an equal volume (5 μL) of GLO reagent. After 40 minutes, 10 μL DET reagent was added and incubated for 1 hour before visualization on a Cytation™ 5 Cell Imaging Multi-Mode Reader (BioTek).

haspin = target: T2, haspin (Homo sapiens, UniProt Q8TF76); experiment: ADP Glo Kinase Assay, haspin, 50 nM inhibitor; type: biochemical; details: 50 nM inhibitor conc.; means of triplicates; read-out: Percent Inhibition (%) Haspin
T2 sequence (Q8TF76 1-798): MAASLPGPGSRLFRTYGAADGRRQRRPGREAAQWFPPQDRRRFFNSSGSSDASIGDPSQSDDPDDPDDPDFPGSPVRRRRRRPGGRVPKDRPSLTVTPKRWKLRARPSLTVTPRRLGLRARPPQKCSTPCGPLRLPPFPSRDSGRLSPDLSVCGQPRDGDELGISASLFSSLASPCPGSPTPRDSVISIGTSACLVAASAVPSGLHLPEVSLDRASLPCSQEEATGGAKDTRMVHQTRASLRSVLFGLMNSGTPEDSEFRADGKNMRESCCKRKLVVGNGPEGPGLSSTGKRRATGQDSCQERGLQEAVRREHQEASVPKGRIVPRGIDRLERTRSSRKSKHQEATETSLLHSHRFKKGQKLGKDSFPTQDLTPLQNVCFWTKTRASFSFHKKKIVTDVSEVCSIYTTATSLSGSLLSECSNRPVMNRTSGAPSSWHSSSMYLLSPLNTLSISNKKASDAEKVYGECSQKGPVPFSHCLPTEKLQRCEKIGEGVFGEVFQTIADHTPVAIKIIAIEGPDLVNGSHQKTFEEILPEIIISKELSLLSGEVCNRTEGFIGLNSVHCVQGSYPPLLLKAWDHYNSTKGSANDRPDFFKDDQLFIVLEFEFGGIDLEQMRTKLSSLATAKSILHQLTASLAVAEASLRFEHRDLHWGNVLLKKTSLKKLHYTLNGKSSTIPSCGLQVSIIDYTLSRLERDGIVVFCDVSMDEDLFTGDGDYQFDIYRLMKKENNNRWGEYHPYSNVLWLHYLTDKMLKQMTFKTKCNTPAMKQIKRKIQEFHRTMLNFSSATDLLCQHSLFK
Experimental: as §1, §2

CDK2 = CDK2 (Homo sapiens, UniProt P24941); experiment: CDK2 inhibition (IC50); type: biochemical
CDK12/CyclinK = CDK12/CyclinK (Homo sapiens, UniProt Q9NYV4); experiment: CDK12/CyclinK inhibition (IC50); type: biochemical
Chain of CDK12/CyclinK (Q9NYV4 whole entry): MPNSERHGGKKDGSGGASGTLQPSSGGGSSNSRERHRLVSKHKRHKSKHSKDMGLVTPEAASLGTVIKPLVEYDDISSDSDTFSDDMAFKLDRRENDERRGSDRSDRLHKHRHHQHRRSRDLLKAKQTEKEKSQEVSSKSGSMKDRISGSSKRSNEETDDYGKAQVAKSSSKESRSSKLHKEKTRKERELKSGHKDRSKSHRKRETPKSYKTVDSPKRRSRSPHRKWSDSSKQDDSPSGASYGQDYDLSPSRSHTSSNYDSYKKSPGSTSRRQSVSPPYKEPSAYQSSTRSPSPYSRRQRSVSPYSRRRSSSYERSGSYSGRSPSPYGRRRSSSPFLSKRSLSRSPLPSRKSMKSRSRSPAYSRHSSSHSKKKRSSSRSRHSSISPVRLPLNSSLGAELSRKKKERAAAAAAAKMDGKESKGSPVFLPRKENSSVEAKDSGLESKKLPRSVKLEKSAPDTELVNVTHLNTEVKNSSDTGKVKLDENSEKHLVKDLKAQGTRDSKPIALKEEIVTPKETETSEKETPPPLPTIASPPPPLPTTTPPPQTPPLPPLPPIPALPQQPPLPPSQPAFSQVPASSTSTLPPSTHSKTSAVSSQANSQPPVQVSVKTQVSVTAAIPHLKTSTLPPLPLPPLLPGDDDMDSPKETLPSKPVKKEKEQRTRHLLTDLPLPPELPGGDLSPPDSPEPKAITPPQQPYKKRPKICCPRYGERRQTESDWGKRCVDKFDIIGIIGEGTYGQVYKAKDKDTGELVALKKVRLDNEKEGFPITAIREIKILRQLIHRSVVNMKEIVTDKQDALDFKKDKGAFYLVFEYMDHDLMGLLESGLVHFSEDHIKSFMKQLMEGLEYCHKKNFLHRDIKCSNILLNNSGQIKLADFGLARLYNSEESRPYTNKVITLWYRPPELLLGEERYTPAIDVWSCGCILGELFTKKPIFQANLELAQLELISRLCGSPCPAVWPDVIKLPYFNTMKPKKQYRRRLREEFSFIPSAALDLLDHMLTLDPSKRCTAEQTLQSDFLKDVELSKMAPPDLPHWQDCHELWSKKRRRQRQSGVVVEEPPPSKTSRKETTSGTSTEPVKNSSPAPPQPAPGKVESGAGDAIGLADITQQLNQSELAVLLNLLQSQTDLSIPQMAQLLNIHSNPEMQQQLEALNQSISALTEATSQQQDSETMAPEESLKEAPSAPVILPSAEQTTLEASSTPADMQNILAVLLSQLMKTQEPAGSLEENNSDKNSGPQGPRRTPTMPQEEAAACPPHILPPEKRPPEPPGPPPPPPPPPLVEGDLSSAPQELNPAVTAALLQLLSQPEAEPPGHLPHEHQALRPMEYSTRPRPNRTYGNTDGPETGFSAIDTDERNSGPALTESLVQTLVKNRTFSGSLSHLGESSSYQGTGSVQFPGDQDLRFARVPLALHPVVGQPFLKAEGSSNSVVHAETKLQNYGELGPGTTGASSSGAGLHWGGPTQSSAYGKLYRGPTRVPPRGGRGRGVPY
Chain of CDK12/CyclinK (O75909 whole entry partner): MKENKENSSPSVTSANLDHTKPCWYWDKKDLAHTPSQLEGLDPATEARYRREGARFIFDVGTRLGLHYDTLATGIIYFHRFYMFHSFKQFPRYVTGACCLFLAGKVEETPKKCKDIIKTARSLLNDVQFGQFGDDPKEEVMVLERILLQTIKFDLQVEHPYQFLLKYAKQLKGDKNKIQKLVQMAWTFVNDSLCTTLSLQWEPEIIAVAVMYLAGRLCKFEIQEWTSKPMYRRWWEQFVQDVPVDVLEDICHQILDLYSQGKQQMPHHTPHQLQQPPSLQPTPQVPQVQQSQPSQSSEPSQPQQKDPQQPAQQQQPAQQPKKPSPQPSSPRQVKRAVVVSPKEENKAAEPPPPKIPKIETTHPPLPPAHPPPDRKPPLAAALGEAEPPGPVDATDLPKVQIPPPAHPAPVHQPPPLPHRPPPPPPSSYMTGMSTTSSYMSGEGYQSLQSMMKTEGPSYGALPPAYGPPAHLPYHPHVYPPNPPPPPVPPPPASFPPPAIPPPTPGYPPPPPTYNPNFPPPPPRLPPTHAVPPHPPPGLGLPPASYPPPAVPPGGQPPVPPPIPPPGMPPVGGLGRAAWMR

| SMILES | inhibition at 0.05 µM (Molm-14 cells (FLT3-ITD)) | inhibition at 0.05 µM (FLT3) | inhibition at 0.05 µM (haspin) | IC50 (CDK2) | IC50 (CDK12/CyclinK) |
| --- | --- | --- | --- | --- | --- |
| O=C(NCc1c[nH]cn1)c1ccc(-c2nc3ccc4[nH]ncc4c3c3c2CCCC3)cc1 [Compound 4, N-((1H-imidazol-4-yl)methyl)-4-(8,9,10,11-tetrahydro-3H-pyrazolo[4,3-a]phenanthridin-7-yl)benzamide] | 67% | 49% | 54% |  |  |
| O=C(NCCn1ccnc1)c1ccc(-c2nc3ccc4[nH]ncc4c3c3c2CCCC3)cc1 [Compound 5, N-(2-(1H-imidazol-1-yl)ethyl)-4-(8,9,10,11-tetrahydro-3H-pyrazolo[4,3-a]phenanthridin-7-yl)benzamide] | 42% | 31% | 33% |  |  |
| O=C(NCc1ncc[nH]1)c1ccc(-c2nc3ccc4[nH]ncc4c3c3c2CCCC3)cc1 [Compound 6, N-((1HI-imidazol-2-yl)methyl)-4-(8,9,10,11-tetrahydro-3H-pyrazolo[4,3-a]phenanthridin-7-yl)benzamide] | 84% | 76% | 77% |  |  |
| Cn1ccnc1CNC(=O)c1ccc(-c2nc3ccc4[nH]ncc4c3c3c2CCCC3)cc1 [Compound 7, N-((1-methyl-1H-imidazol-2-yl)methyl)-4-(8,9,10,11-tetrahydro-3H-pyrazolo[4,3-a]phenanthridin-7-yl)benzamide] | 21% | 14% | 26% |  |  |
| O=C(NCc1ncn[nH]1)c1ccc(-c2nc3ccc4[nH]ncc4c3c3c2CCCC3)cc1 [Compound 8, N-((4H-1,2,4-triazol-3-yl)methyl)-4-(8,9,10,11-tetrahydro-3H-pyrazolo[4,3-a]phenanthridin-7-yl)benzamide] | 48% | 49% | 57% |  |  |
| O=C(NCc1ncc[nH]1)c1ccc(-c2nc3ccc4[nH]ncc4c3c3c2CCCC3)c(F)c1 [Compound 9, N-((1H-imidazol-2-yl)methyl)-3-fluoro-4-(8,9,10,11-tetrahydro-3H-pyrazolo[4,3-a]phenanthridin-7-yl)benzamide] | 87% | 88% | 53% |  |  |
| O=C(NCc1nnn[nH]1)c1ccc(-c2nc3ccc4[nH]ncc4c3c3c2CCCC3)cc1 [Compound 10, N-((1H-tetrazol-5-yl)methyl)-4-(8,9,10,11-tetrahydro-3H-pyrazolo[4,3-a]phenanthridin-7-yl)benzamide] | 50% | 51% | 57% |  |  |
| O=C(NCc1ncc[nH]1)c1ccc(-c2nc3ccc4[nH]ncc4c3c3c2CCCC3)cc1F [Compound 11, N-((1H-imidazol-2-yl)methyl)-2-fluoro-4-(8,9,10,11-tetrahydro-3H-pyrazolo[4,3-a]phenanthridin-7-yl)benzamide] | 80% | 85% | 76% |  |  |
| O=C(NCc1cc[nH]c1)c1ccc(-c2nc3ccc4[nH]ncc4c3c3c2CCCC3)cc1 [Compound 12, N-((1H-pyrrol-3-yl)methyl)-4-(8,9,10,11-tetrahydro-3H-pyrazolo[4,3-a]phenanthridin-7-yl)benzamide] | 39% | 46% | 41% |  |  |
| O=C(NCc1nccs1)c1ccc(-c2nc3ccc4[nH]ncc4c3c3c2CCCC3)cc1 [Compound 13, 4-(8,9,10,11-tetrahydro-3HI-pyrazolo[4,3-a]phenanthridin-7-yl)-N-(thiazol-2-ylmethyl)benzamide] | 55% | 53% | 68% |  |  |
| Cc1c[nH]c(CNC(=O)c2ccc(-c3nc4ccc5[nH]ncc5c4c4c3CCCC4)cc2)n1 [Compound 14, N-((4-methyl-1H-imidazol-2-yl)methyl)-4-(8,9,10,11-tetrahydro-3H-pyrazolo[4,3-a]phenanthridin-7-yl)benzamide] |  | 94% | 97% |  |  |
| O=C(NCCc1ncc[nH]1)c1ccc(-c2nc3ccc4[nH]ncc4c3c3c2CCCC3)cc1 [Compound 15, N-(2-(1H-imidazol-2-yl)ethyl)-4-(8,9,10,11-tetrahydro-3H-pyrazolo[4,3-a]phenanthridin-7-yl)benzamide] | 73% | 71% | 78% |  |  |
| O=C(NO)c1ccc(-c2nc3ccc4[nH]ncc4c3c3c2CCCC3)cc1 [Compound HSD1993, N-hydroxy-4-(8,9,10,11-tetrahydro-3H-pyrazolo[4,3-a]phenanthridin-7-yl)benzamide] |  |  |  | 4 nM | 9 nM |
| CN(C)CCNC(=O)c1ccc(-c2nc3ccc4[nH]ncc4c3c3c2CCCC3)cc1 [Compound HSH2177, N-(2-(dimethylamino)ethyl)-4-(8,9,10,11-tetrahydro-3H-pyrazolo[4,3-a]phenanthridin-7-yl)benzamide] |  |  |  | 7 nM | 27 nM |
| FC(F)(F)c1n[nH]cc1-c1nc2ccc3[nH]ncc3c2c2c1CCCC2 [HSD1169, reference compound] | 90% | 81% | 39% |  |  |
| NC(=O)c1ccc(-c2nc3ccc4[nH]ncc4c3c3c2CCCC3)cc1 [HSD1217, reference compound] |  |  |  | 185 nM |  |
| CN(C)C/C=C/C(=O)Nc1ccc(C(=O)N2CCC[C@@H](Nc3ncc(Cl)c(-c4c[nH]c5ccccc45)n3)C2)cc1 [THZ531, reference compound] |  |  |  |  | 60 nM |
